# Measured values reported in US8039513B2, “Cis-1,2-substituted stilbene derivatives and their use in preparation of drugs for treatment and/or prevention of diabetes” (Institute of Radiation Medicine, Academy of Military …, priority 2004, dated 2011).
# What was measured:
# [1] = system: mice with glucose-induced hyperglycemia; assay: Hypoglycemic effect of orally administered compounds in mice with glucose-induced hyperglycemia; assay type: in vivo, Kun Ming male mice; settings: glucose 2 g/10 ml/kg orally 15 min later, fasted mice
# Experimental: In the following biological experiments, the hypoglycemic activity of the above compounds was chiefly observed in hyperglycemic mice. Taking 3,3′,5′-trihydroxy-4′-methoxystilbene-3-O-β-D-glucoside (rhaponticin) as a positive control drug, the hypoglycemic activity of these compounds were preliminarily evaluated.
# Kun Ming male mice (certification: Medical Animal No. D01-3023) with body weight of 21-33 g were used in the experiments. After fasting and feeding water for 16 hours, the compounds were administered to the mice. The candidate compounds were formulated with dimethyl sulfoxide (2.5 ml/kg), and administered to the mice intragastrically. After fifteen minutes, glucose (2 g/10 ml/kg) was administered orally. One hour later, one drop of blood was collected by cutting a segment of tail and the blood sugar level was monitored with a blood sugar monitor manufactured by Johnson Company, USA, by using a test paper containing glucose oxidase. For the mice of the control group, dimethyl sulfoxide ([…]) and glucose (2 g/10 ml/kg) were given intragastrically.
# [2] = Table 1, 400 mg/kg intragastrically, DMSO control 9.50 ± 1.06
# [3] = Table 2, 400 mg/kg intragastrically, DMSO control 8.53 ± 0.76
# [4] = Table 3, 400 mg/kg intragastrically, DMSO control 7.80 ± 1.33
SMILES,"Blood sugar level one hour after administration M ± SD [1, 2] [mmol/L]","Blood sugar level one hour after administration M ± SD [1, 3] [mmol/L]",further results
"COc1cc(/C=C\c2ccccc2)ccc1O [Example 1, cis-1-phenzyl-2-(3′-methoxy-4′-hydroxy-phenyl)ethene]",7.62 ± 1.59,–,–
"COc1ccc(/C=C(/C(=O)O)c2ccccc2)cc1OC(C)=O [Example 2, cis-2-phenyl-3-(3′-acetoxy-4′-methoxy-phenyl)acrylic acid]",8.20 ± 0.99,–,–
"COc1cc(/C=C(/C(=O)O)c2ccccc2)ccc1OC(C)=O [Example 3, cis-2-phenyl-3-(3′-methoxy-4′-acetoxy-phenyl)acrylic acid]",7.30 ± 0.68,7.85 ± 0.16,–
"COc1cc(/C=C(/C(=O)O)c2ccccc2)ccc1O [Example 4, cis-2-phenyl-3-(3′-methoxy-4′-hydroxy-phenyl)acrylic acid]",–,7.30 ± 2.21,–
"COc1ccc(/C=C(/C(=O)O)c2ccccc2)cc1C(=O)O [Example 5, cis-2-phenyl-3-(3′-carboxy-4′-methoxy-phenyl)acrylic acid]",–,8.50 ± 1.01,–
"COc1cc(/C=C(/C(=O)NC2CCCCC2)c2ccccc2)ccc1OC(C)=O [Example 6, cis-2-phenyl-3-(3-methoxy-4′-acetoxy-phenyl)-N-cyclohexyl acrylamide]",–,5.46 ± 0.86,–
"COc1cc(C=C(C(=O)NCc2ccco2)c2ccccc2)ccc1OC(C)=O [Example 7, cis-2-phenyl-3-(3′-methoxy-4′-acetoxy-phenyl)-N-(methylenefuran)acrylamide]",–,–,"Blood sugar level one hour after administration M ± SD [1, 4]: 6.95 ± 0.61 mmol/L"
"COc1cc(C=C(C(=O)N[C@H]2CC[C@@H](C)CC2)c2ccccc2)ccc1OC(C)=O [Example 8, cis-2-phenyl-3-(3′-methoxy-4′-acetoxy-phenyl)-N-(4-methylcyclohexyl)acrylamide]",–,–,"Blood sugar level one hour after administration M ± SD ([1]; Table 3, 100 mg/kg intragastrically, DMSO control 7.80 ± 1.33): 5.61 ± 1.67 mmol/L; melting point: 136 to 140 °C"
"COC(=O)/C(=C/c1ccc(OC)c(OC)c1)c1ccccc1 [Example 9, cis-2-phenyl-3-(3′,4′-dimethoxy-phenyl)-methyl acrylate]",–,–,"Blood sugar level one hour after administration M ± SD [1, 4]: 8.41 ± 0.88 mmol/L"
"COc1ccc(/C=C/c2cc(O)cc(O[C@@H]3O[C@H](CO)[C@@H](O)[C@H](O)[C@H]3O)c2)cc1O [rhaponticin, 3,3′,5′-trihydroxy-4′-methoxystilbene-3-O-β-D-glucoside, reference compound]",9.14 ± 1.90,–,"Blood sugar level one hour after administration M ± SD ([1]; Table 1, 800 mg/kg intragastrically, DMSO control 9.50 ± 1.06): 7.02 ± 1.01 mmol/L"
